The source of these data is publication PMC8092912 (Antimicrobial Agents and Chemotherapy, 2021).

Data set [1] concerns HIV-1 strain NL4.3 WT. Put plainly: Drug washout, viral replication (RT activity in culture supernatant) of WT virus in MT-2 cells. It counts as cell-based. To be noted: for Time WT viral replication remained inhibited after washout: drug at 20 times IC90, washout 3 days postinfection; for WT viral replication after washout: drug at 20 times IC90, 4 days after washout. Here is the method: (§1) We then washed away the inhibitors 3 days postinfection and quantified the reverse transcriptase activity in the culture supernatant to evaluate viral growth as described on washout days 0, 4, and 8 ([10], [11]). […] Longer experiments would be required to further differentiate BIC and DTG in washout experiments using WT virus.
(§2) Replication was assessed by measuring RT activity in culture supernatant without and after drug washout. Bar graphs, mean ± SEM. Statistical significance of drug washout with drug control conditions were assessed by adjusted P value with Tukey’s test: *, <0.05; ***, <0.001; and ****, <0.0001. For the washout experiments, BIC and EVG were synthesized at Gilead Sciences, Inc., DTG was purchased from Toronto Research Chemicals (ON, Canada), and RAL was provided by Merck, Inc.

Data set [2] relates to HIV-1 G140S+Q148H. The data set is described as follows: Antiviral activity against G140S+Q148H HIV-1 in the MT-2 cell line. In kind it is cell-based. Particulars: for EC50: Human immunodeficiency virus 1, MT2; for Fold change of EC50, G140S+Q148H (reduced susceptibility): versus WT.
In data set [3] the target is T1, G140S+Q148H mutant HIV-1 IN-DNA complexes (Human immunodeficiency virus type 1 group M subtype B, UniProt P04585, G1287S/Q1295H). To be noted: for Apparent t1/2, G140S+Q148H: 37°C, single exponential decay. How it is done:
(§3) Data sets were analyzed using a single exponential decay equation as previously published for INSTIs ([3]).

In data set [4] the test system is HIV-1 WT. Put plainly: Antiviral activity against WT HIV-1 in the MT-2 cell line. In kind it is cell-based. Particulars: Human immunodeficiency virus 1, MT2. From the text: TABLE 1 Structure and antiviral activity of INSTIs in the MT-2 cell line | column: Antiviral activity against HIV-1, EC50 (nM)^b (fold change) / WT
The subject of data set [5] is HIV-1 strain NL4.3 G140S+Q148H. Put plainly: Drug washout, viral replication (RT activity in culture supernatant) of G140S+Q148H virus in MT-2 cells. In kind it is cell-based. Particulars: for G140S+Q148H viral replication under constant drug pressure: drug at 20 times IC90, no washout. How it is done:
as §1, §2
The G140S+Q148H mutations cause varied degrees of resistance to INSTIs.

For data set [6], the target named is T2, WT HIV-1 IN-DNA complexes (Human immunodeficiency virus type 1 group M subtype B, UniProt P04585). Here is the method: as §3
For data set [7], the system named is G140S+Q148H mutant HIV-1 IN-DNA complexes. Here is the method:
as §3

Data set [8] has as its target T1, G140S+Q148H mutant HIV-1 IN-DNA complexes. To be noted: values in square brackets; cited from earlier work.
Data set [9] addresses T2, WT HIV-1 IN-DNA complexes. Particulars: cited from earlier work.

Read-outs that look alike come from different tables or passages of the source. Bounds are passed on as bounds.

Regarding `O=C(NCc1c(F)cc(F)cc1F)c1cn2c(c(O)c1=O)C(=O)N1[C@H]3CC[C@H](C3)O[C@@H]1C2` [BIC, bictegravir], in [1], the “Time WT viral replication remained inhibited after washout” value is “at least 8 days”. Further, the EC50 came to 3.1 ± 0.8 nM in data set [2] and 1.5 ± 0.2 nM in [4]. Moreover, the “Apparent t1/2, G140S+Q148H” value in data set [3] worked out at 5.7 ± 0.4 h. Also, the “Suppression of the G140S+Q148H virus after washout” value in data set [5] (drug at 20 times IC90, after 8 days of washout) is listed as above 80%. In addition, the “G140S+Q148H viral replication under constant drug pressure” value in [5] was “very low levels of replication”.
For `O=C(NCc1ccc(F)cc1F)c1cn2c(c(O)c1=O)C(=O)N1[C@H]3CC[C@H](C3)O[C@@H]1C2` [Compound 1], in [2], the EC50 is 4.5 ± 1.8 nM and the “Fold change of EC50, G140S+Q148H (reduced susceptibility)” value amounted to 3.2 fold. The “Apparent t1/2, G140S+Q148H” value in data set [3] stood at 4.8 ± 0.2 h. In data set [6] (37°C, single exponential decay), the “Apparent t1/2, WT” value is 155 ± 25 h and the “koff, WT” value is on record as 1.3 ± 0.2 s^−1 (×10^−6). In data set [7], the “Apparent t1/2, G140S+Q148H, fold change vs WT” value turned out to be 32 fold and the “koff, G140S+Q148H, fold change vs WT” value was found to be 0.03 fold. Besides, in [4], the EC50 was found to be 1.4 ± 0.5 nM.
Take `O=C(NCc1c(F)cc(F)cc1F)c1cn2c(c(O)c1=O)C(=O)N1[C@@H]3CC[C@@H](C3)O[C@H]1C2` [Compound 2]: the EC50 in data set [2] was 11.1 ± 0.5 nM; in [4], 1.5 ± 0.5 nM. Besides, the “Apparent t1/2, G140S+Q148H” value in [3] turned out to be 1.7 ± 0.2 h.
For `C[C@@H]1CCO[C@H]2Cn3cc(C(=O)NCc4ccc(F)cc4F)c(=O)c(O)c3C(=O)N12` [DTG, dolutegravir], in [8], the “Apparent t1/2, G140S+Q148H” value is listed as 3.3 h and the “koff, G140S+Q148H” value is 58 ± 8 s^−1 (×10^−6). For the same compound, the “Time WT viral replication remained inhibited after washout” value in data set [1] was “at least 8 days”. In [2], the EC50 worked out at 6.5 ± 1.2 nM and the “Fold change of EC50, G140S+Q148H (reduced susceptibility)” value is given as 4.3 fold. In [3], the “Apparent t1/2, G140S+Q148H” value turned out to be 1.9 ± 0.2 h. Also, in data set [6] (37°C, single exponential decay), the “Apparent t1/2, WT” value was 96 ± 29 h and the “koff, WT” value is on record as 2.2 ± 0.7 s^−1 (×10^−6). Moreover, in [7], the “Apparent t1/2, G140S+Q148H, fold change vs WT” value stood at 51 fold and the “koff, G140S+Q148H, fold change vs WT” value is listed as 0.02 fold. Also, the midpoint of the response in [4], the EC50, lay at 1.5 ± 0.2 nM. Also, the “G140S+Q148H viral replication after washout” value in data set [5] (drug at 20 times IC90, 4 and 8 days after washout) is recorded as “significant viral replication”. In [5], the “G140S+Q148H viral replication under constant drug pressure” value is “low replication”. In data set [9] (values in square brackets), the “Apparent t1/2, WT” value is reported as 71 h and the “koff, WT” value is 2.7 ± 0.4 s^−1 (×10^−6).
As to `COc1cc2c(cc1Cc1cccc(Cl)c1F)c(=O)c(C(=O)O)cn2[C@H](CO)C(C)C` [EVG, elvitegravir], in data set [1], the “WT viral replication after washout” value is “detectable viral replication”. Also, the EC50 in [2] stood at 868 ± 138 nM; in data set [4], 2.1 ± 0.9 nM.
On to `Cc1nnc(C(=O)NC(C)(C)c2nc(C(=O)NCc3ccc(F)cc3)c(O)c(=O)n2C)o1` [RAL, raltegravir], for which the “Apparent t1/2, G140S+Q148H” value in data set [8] was “ND [0.2] h”. In data set [8], the “koff, G140S+Q148H” value is “ND [1,130] s^−1 (×10^−6)”. Also, the “WT viral replication after washout” value in data set [1] is “detectable viral replication”. For the same compound, the results for the EC50 in data set [2] and in data set [4] were 2460 nM and 9.4 ± 1.4 nM, respectively. Moreover, the “Binding to G140S+Q148H IN-DNA complexes for determination of dissociation kinetics” value in [3] is “insufficient level of binding”. Also, the “koff, WT” value in [6] and in [9] was 21 ± 6 [22 ± 2] throughout. Moreover, the “Apparent t1/2, WT” value in data set [6] (recombinant enzyme) and in data set [9] was 10 ± 2 [8.8] h each time.
